Results on 25 compounds are retold here after US9771359B1, “Substituted oxazole- and thiazole-based carboxamide and urea derivatives as vanilloid receptor ligands II” (MEDIFRON DBT INC., priority 2014, dated 2017).

SMILES strings stand for the structures. Counter-ions that a name gives are not always drawn.

This assay deals with vanilloid receptor 1 (VR1/TRPV1) (Homo sapiens (Human), UniProt Q8NER1). As to the kind of experiment: FLIPR assay, Ca2+ influx in CHO K1 cells transfected with the human VR1 gene. It is filed as cell-based. The settings on record: for Ki: displacement of capsaicin 100 nM, Ki from IC50 by Cheng-Prusoff equation, read-out: (f) Ki (human) [nM] Cap; for compound-alone effect on Ca2+ influx (agonist / partial agonist): compound 5 μM, % activation compared with control capsaicin 10 μM; for inhibition at 5 µM: CHO-K1, @5 μM test compound, capsaicin 100 nM, read-out: inhibition (as a percentage), Cap. Here is the method:
Furthermore, preference may be given to compounds according to the first aspect of the invention that cause a 50% displacement of capsaicin, which is present at a concentration of 100 nM, in a FLIPR assay with CHO K1 cells which were transfected with the human VR1 gene at a concentration of less than 2 000 nM, preferably less than 1 000 nM, particularly preferably less than 300 nM, most particularly preferably less than 100 nM, even more preferably less than 75 nM, additionally preferably less than 50 nM, most preferably less than 10 nM. In the process, the Ca^2+ influx is quantified in the FLIPR assay with the aid of a Ca^2+-sensitive dye (type Fluo-4, Molecular Probes Europe BV, Leiden, the Netherlands) in a fluorescent imaging plate reader (FLIPR, Molecular Devices, Sunnyvale, USA), as described hereinafter.
The FLIPR protocol consists of 2 substance additions during a kinetic measurement. First the compounds to be tested (5 μM) are pipetted onto the cells and the Ca^2+ influx is determined in comparison to the control (capsaicin 10 μM), providing the result as % activation and representing the compound-alone effect (calculation at peak signal related to baseline). […] After 5 min incubation, the Ca^2+ influx is related to an injection of 100 nM of capsaicin and thereby the antagonistic effect of the test compounds detected.
Desensitising agonists and antagonists lead to suppression of the Ca^2+ influx. The % inhibition is calculated compared to the maximum achievable inhibition with 10 μM of capsaicin. Triple analyses (n=3) are carried out and repeated in at least 3 independent experiments.
Starting from the percentage displacement caused by different concentrations of the compounds to be tested of general formula I, IC50 inhibitory concentrations which cause a 50-% displacement of capsaicin were calculated. Ki values for the test substances were obtained by conversion by means of the Cheng-Prusoff equation (Cheng, Prusoff; Biochem. Pharmacol. 22, 3099-3108, 1973).
Chinese hamster ovary cells (CHO K1 cells, European Collection of Cell Cultures (ECACC) United Kingdom) are stably transfected with the VR1 gene. For functional testing, these cells are plated out on poly-D-lysine-coated black 96-well plates having a clear base (BD Biosciences, Heidelberg, Germany) at a density of 25,000 cells/well. The cells are incubated overnight at 37° C. and 5% CO2 in a culture medium (Ham's F12 nutrient mixture, 10% by volume of FCS (foetal calf serum), 18 μg/ml of L-proline). The next day the cells are incubated with Fluo-4 (Fluo-4 2 μM, 0.01% by volume of Pluronic F127, Molecular Probes in HBSS (Hank's buffered saline solution), Gibco Invitrogen GmbH, Karlsruhe, Germany) for 30 min at 37° C. Subsequently, the plates are washed three times with HBSS buffer and after further incubation for 15 min at RT used for Ca^2+ measurement in a FLIPR assay. The Ca^2+-dependent fluorescence is measured before and after the addition of the substances to be tested (λex wavelength=488 nm, λem=540 nm). Quantification is carried out by measuring the highest fluorescence intensity (FC, fluorescence counts) over time.

Chain of vanilloid receptor 1 (VR1/TRPV1) (Q8NER1 whole entry): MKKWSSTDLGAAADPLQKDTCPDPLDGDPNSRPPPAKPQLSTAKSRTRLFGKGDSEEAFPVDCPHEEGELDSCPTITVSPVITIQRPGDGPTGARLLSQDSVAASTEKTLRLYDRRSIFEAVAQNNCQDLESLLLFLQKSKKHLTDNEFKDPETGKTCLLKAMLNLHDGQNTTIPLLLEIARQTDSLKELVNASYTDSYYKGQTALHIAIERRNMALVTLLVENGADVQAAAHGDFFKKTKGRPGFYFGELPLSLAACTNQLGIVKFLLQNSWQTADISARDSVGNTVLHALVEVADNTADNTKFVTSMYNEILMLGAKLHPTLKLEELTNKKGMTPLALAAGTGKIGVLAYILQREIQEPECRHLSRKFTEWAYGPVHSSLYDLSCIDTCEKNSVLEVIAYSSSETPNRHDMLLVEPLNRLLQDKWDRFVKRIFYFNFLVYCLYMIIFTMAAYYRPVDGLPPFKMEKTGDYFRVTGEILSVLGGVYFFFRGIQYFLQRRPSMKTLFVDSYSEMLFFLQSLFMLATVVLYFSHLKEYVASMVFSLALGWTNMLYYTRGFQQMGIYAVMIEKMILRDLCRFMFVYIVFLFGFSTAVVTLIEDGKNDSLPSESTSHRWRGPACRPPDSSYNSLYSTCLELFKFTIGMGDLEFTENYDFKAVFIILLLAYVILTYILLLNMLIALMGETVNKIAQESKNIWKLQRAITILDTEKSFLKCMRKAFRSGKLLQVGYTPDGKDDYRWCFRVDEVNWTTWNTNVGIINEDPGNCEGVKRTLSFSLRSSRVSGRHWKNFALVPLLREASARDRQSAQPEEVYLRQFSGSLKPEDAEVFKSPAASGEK

A word on the Ki: it is the dissociation constant of the complex between target and ligand, obtained from inhibition or displacement. As for `CC(C(=O)NCc1sc(C(F)(F)F)nc1-c1cccc(Cl)c1)c1ccc(CNS(N)(=O)=O)c(F)c1` (centres unmarked) [EX-24, N-((4-(3-chlorophenyl)-2-(trifluoromethyl)thiazol-5-yl)methyl)-2-(3-fluoro-4-((sulfamoylamino)methyl)phenyl)propanamide], the Ki worked out at 2.35 nM.

On to `CC(C)(C)c1nc(-c2cccc(Cl)c2)c(CNC(=O)Nc2ccc(CO)nc2)o1` [EX-25, 1-((2-(tert-butyl)-4-(3-chlorophenyl)oxazol-5-yl)methyl)-3-(6-(hydroxymethyl)pyridin-3-yl)urea], for which the “compound-alone effect on Ca2+ influx (agonist / partial agonist)” value is “pAG (A Ca^2+ influx of 10%-60% reveals a partial agonist (pAG))” and the Ki stood at 73.1 nM.

As to `CC(C)(C)c1nc(-c2cccc(Cl)c2)c(CNC(=O)Nc2ccc(CO)nc2)s1` [EX-26, 1-((2-(tert-butyl)-4-(3-chlorophenyl)thiazol-5-yl)methyl)-3-(6-(hydroxymethyl)pyridin-3-yl)urea], the “compound-alone effect on Ca2+ influx (agonist / partial agonist)” value is recorded as “pAG (A Ca^2+ influx of 10%-60% reveals a partial agonist (pAG))” and the inhibition constant Ki amounted to 10.2 nM.

As for `O=C(NCc1oc(C(F)(F)F)nc1-c1cccc(Cl)c1)Nc1ccc(CO)nc1` [EX-27, 1-((4-(3-chlorophenyl)-2-(trifluoromethyl)oxazol-5-yl)methyl)-3-(6-(hydroxymethyl)pyridin-3-yl)urea], the Ki is 62.5 nM.

With `O=C(NCc1sc(C(F)(F)F)nc1-c1cccc(Cl)c1)Nc1ccc(CO)nc1` [EX-28, 1-((4-(3-chlorophenyl)-2-(trifluoromethyl)thiazol-5-yl)methyl)-3-(6-(hydroxymethyl)pyridin-3-yl)urea], the inhibitory constant (Ki) worked out at 19.4 nM.

Usually inhibition stands for how much of the control response was suppressed. On to `CS(=O)(=O)CCc1ccc(NC(=O)NCc2oc(C(F)(F)F)nc2-c2cccc(Cl)c2)cn1` [EX-30, 1-((4-(3-chlorophenyl)-2-(trifluoromethyl)oxazol-5-yl)methyl)-3-(6-(2-(methylsulfonyl)ethyl)pyridin-3-yl)urea], for which the inhibition at 5 µM was 41%.

For `CS(=O)(=O)CCc1ccc(NC(=O)NCc2sc(C(F)(F)F)nc2-c2cccc(Cl)c2)cn1` [EX-31, 1-((4-(3-chlorophenyl)-2-(trifluoromethyl)thiazol-5-yl)methyl)-3-(6-(2-(methylsulfonyl)ethyl)pyridin-3-yl)urea], the Ki came to 48.8 nM.

With `O=C(NCc1oc(C(F)(F)F)nc1-c1cccc(Cl)c1)Nc1ccc(N2CC(O)C2)nc1` [EX-32, 1-((4-(3-chlorophenyl)-2-(trifluoromethyl)oxazol-5-yl)methyl)-3-(6-(3-hydroxyazetidin-1-yl)pyridin-3-yl)urea], the Ki was determined as 60.8 nM.

Regarding `O=C(NCc1sc(C(F)(F)F)nc1-c1cccc(Cl)c1)Nc1ccc(N2CC(O)C2)nc1` [EX-33, 1-((4-(3-chlorophenyl)-2-(trifluoromethyl)thiazol-5-yl)methyl)-3-(6-(3-hydroxyazetidin-1-yl)pyridin-3-yl)urea], the inhibition constant (Ki) turned out to be 24.6 nM.

In the case of `O=C(NCc1sc(C(F)(F)F)nc1-c1cccc(Cl)c1)Nc1ccc(CCO)nc1` [EX-34, 1-((4-(3-chlorophenyl)-2-(trifluoromethyl)thiazol-5-yl)methyl)-3-(6-(2-hydroxyethyl)pyridin-3-yl)urea], the “compound-alone effect on Ca2+ influx (agonist / partial agonist)” value is on record as “pAG (A Ca^2+ influx of 10%-60% reveals a partial agonist (pAG))” and the Ki was 30.2 nM.

Take `CC(C)(C)c1nc(-c2cccc(Cl)c2)c(CNC(=O)Nc2ccc(CCO)nc2)o1` [EX-35, 1-((2-(tert-butyl)-4-(3-chlorophenyl)oxazol-5-yl)methyl)-3-(6-(2-hydroxyethyl)pyridin-3-yl)urea]: the inhibitory constant (Ki) turned out to be 78.4 nM.

For `CC(C)(C)c1nc(-c2cccc(Cl)c2)c(CNC(=O)Nc2ccc(CCO)nc2)s1` [EX-36, 1-((2-(tert-butyl)-4-(3-chlorophenyl)thiazol-5-yl)methyl)-3-(6-(2-hydroxyethyl)pyridin-3-yl)urea], the “compound-alone effect on Ca2+ influx (agonist / partial agonist)” value is recorded as “AG (a Ca^2+ influx of >60% relates to a pure agonist (AG))”.

In the case of `O=C(NCc1oc(C(F)(F)F)nc1-c1cccc(Cl)c1)Nc1ccc(CCO)nc1` [EX-37, 1-((4-(3-chlorophenyl)-2-(trifluoromethyl)oxazol-5-yl)methyl)-3-(6-(2-hydroxyethyl)pyridin-3-yl)urea], the inhibition at 5 µM was 46%.

In the case of `CC(C)(C)c1nc(-c2cccc(Cl)c2)c(CNC(=O)Nc2ccc(CNS(C)(=O)=O)cc2)o1` [EX-38, N-(4-(3-((2-(tert-butyl)-4-(3-chlorophenyl)oxazol-5-yl)methyl)ureido)benzyl)methanesulfonamide], the Ki came out at 52.6 nM.

As for `CC(C)(C)c1nc(-c2cccc(F)c2)c(CNC(=O)Nc2ccc(CNS(C)(=O)=O)cc2)s1` [EX-39, N-(4-(3-((2-(tert-butyl)-4-(3-fluorophenyl)thiazol-5-yl)methyl)ureido)benzyl)methanesulfonamide], the inhibitory constant (Ki) was determined as 17.6 nM.

`CC(C)(C)c1nc(-c2cccc(Cl)c2)c(CNC(=O)Nc2ccc(OCCO)nc2)o1` [EX-40, 1-((2-(tert-butyl)-4-(3-chlorophenyl)oxazol-5-yl)methyl)-3-(6-(2-hydroxyethoxy)pyridin-3-yl)urea]: the inhibition constant (Ki) was determined as 43.6 nM.

For the compound `CC(C)(C)c1nc(-c2cccc(Cl)c2)c(CNC(=O)Nc2ccc(OCCO)nc2)s1` [EX-41, 1-((2-(tert-butyl)-4-(3-chlorophenyl)thiazol-5-yl)methyl)-3-(6-(2-hydroxyethoxy)pyridin-3-yl)urea], the inhibition constant Ki worked out at 27.5 nM.

As to `O=C(NCc1oc(C(F)(F)F)nc1-c1cccc(Cl)c1)Nc1ccc(OCCO)nc1` [EX-42, 1-((4-(3-chlorophenyl)-2-(trifluoromethyl)oxazol-5-yl)methyl)-3-(6-(2-hydroxyethoxy)pyridin-3-yl)urea], the Ki was 103 nM.

`O=C(NCc1sc(C(F)(F)F)nc1-c1cccc(Cl)c1)Nc1ccc(OCCO)nc1` [EX-43, 1-((4-(3-chlorophenyl)-2-(trifluoromethyl)thiazol-5-yl)methyl)-3-(6-(2-hydroxyethoxy)pyridin-3-yl)urea]: the Ki turned out to be 29.8 nM.

`CC(C)(C)c1nc(CNC(=O)Nc2ccc(CNS(N)(=O)=O)cc2)c(-c2cccc(Cl)c2)o1` [EX-44, N-((5-(3-chlorophenyl)-2-(tertbutyl)oxazol-4-yl)methyl)-N′-(4-((sulfamoylamino)methyl)phenyl)urea]: the Ki was determined as 29.9 nM.

For `CC(C)(C)c1nc(-c2cccc(Cl)c2)c(CNC(=O)Nc2ccc(COCCO)nc2)o1` [EX-46, 1-((2-(tert-butyl)-4-(3-chlorophenyl)oxazol-5-yl)methyl)-3-(6-((2-hydroxyethoxy)methyl)pyridin-3-yl)urea dihydrochloride], the inhibition at 5 µM was determined as 55%.

For the compound `CC(C)(C)c1nc(-c2cccc(Cl)c2)c(CNC(=O)Nc2ccc(COCCO)nc2)s1` [EX-47, 1-((2-(tert-butyl)-4-(3-chlorophenyl)thiazol-5-yl)methyl)-3-(6-((2-hydroxyethoxy)-methyl)pyridin-3-yl)urea dihydrochloride], the inhibition constant (Ki) amounted to 33.3 nM.

In the case of `O=C(NCc1oc(C(F)(F)F)nc1-c1cccc(Cl)c1)Nc1ccc(COCCO)nc1` [EX-48, 1-((4-(3-chlorophenyl)-2-(trifluoromethyl)oxazol-5-yl)methyl)-3-(6-((2-hydroxyethoxy)methyl)pyridin-3-yl)urea dihydrochloride], the inhibition at 5 µM is 31%.

In the case of `O=C(NCc1sc(C(F)(F)F)nc1-c1cccc(Cl)c1)Nc1ccc(COCCO)nc1` [EX-49, 1-((4-(3-chlorophenyl)-2-(trifluoromethyl)thiazol-5-yl)methyl)-3-(6-((2-hydroxyethoxy)methyl)pyridin-3-yl)urea dihydrochloride], the Ki was found to be 35 nM.

Take `CC(C)(C)c1nc(-c2cccc(Cl)c2)c(CNC(=O)Nc2ccc3c(c2)OCO3)s1` [EX-50, 1-(benzo[d][1,3]dioxol-5-yl)-3-((2-(tert-butyl)-4-(3-chlorophenyl)thiazol-5-yl)methyl)urea]: the “compound-alone effect on Ca2+ influx (agonist / partial agonist)” value is “pAG (A Ca^2+ influx of 10%-60% reveals a partial agonist (pAG))” and the Ki was 5.6 nM.
